Each compound was assayed against T1, human capsaicin receptor (Homo sapiens, UniProt Q8NER1) (assay: Calcium mobilization assay, determination of antagonist activity (Example 6)). Conditions: 50% decrease in fluorescence response of cells expressing human capsaicin receptor exposed to capsaicin.
T1 construct: pBK-CMV expression construct encoding the full length human capsaicin receptor; expressed in transfected cells
Type: cell-based
Method: A cDNA encoding full length human capsaicin receptor (SEQ ID NO:1, 2 or 3 of U.S. Pat. No. 6,482,611) was subcloned in the plasmid pBK-CMV (Stratagene, La Jolla, Calif.) for recombinant expression in mammalian cells.
Human embryonic kidney (HEK293) cells were transfected with the pBK-CMV expression construct encoding the full length human capsaicin receptor using standard methods. The transfected cells were selected for two weeks in media containing G418 (400 μg/ml) to obtain a pool of stably transfected cells. Independent clones were isolated from this pool by limiting dilution to obtain clonal stable cell lines for use in subsequent experiments.
Cells transfected with expression plasmids (as described in Example 4) and thereby expressing human capsaicin receptor are seeded and grown to 70-90% confluency in FALCON black-walled, clear-bottomed 96-well plates (#3904, BECTON-DICKINSON, Franklin Lakes, N.J.). The culture medium is emptied from the 96 well plates and FLUO-3 AM calcium sensitive dye (Molecular Probes, Eugene, Oreg.) is added to each well (dye solution: 1 mg FLUO-3 AM, 440 μL DMSO and 440 μl 20% pluronic acid in DMSO, diluted 1:250 in Krebs-Ringer HEPES (KRH) buffer (25 mM HEPES, 5 mM KCl, 0.96 mM NaH2PO4, 1 mM MgSO4, 2 mM CaCl2, 5 mM glucose, 1 mM probenecid, pH 7.4), 50 μl diluted solution per well). Plates are covered with aluminum foil and incubated at 37° C. for 1-2 hours in an environment containing 5% CO2. After the incubation, the dye is emptied from the plates, and the cells are washed once with KRH buffer, and resuspended in KRH buffer.
To measure the ability of a test compound to agonize or antagonize a calcium mobilization response in cells expressing capsaicin receptors to capsaicin or other vanilloid agonist, the EC50 of the agonist capsaicin is first determined. An additional 20 μl of KRH buffer and 1 μl DMSO is added to each well of cells, prepared as described above. 100 μl capsaicin in KRH buffer is automatically transferred by the FLIPR instrument to each well. Capsaicin-induced calcium mobilization is monitored using either FLUOROSKAN ASCENT (Labsystems; Franklin, Mass.) or FLIPR (fluorometric imaging plate reader system; Molecular Devices, Sunnyvale, Calif.) instruments. Data obtained between 30 and 60 seconds after agonist application are used to generate an 8-point concentration response curve, with final capsaicin concentrations of 1 nM to 3 μM. KALEIDAGRAPH software (Synergy Software, Reading, Pa.) is used to fit the data to the equation: y=a*(1/(1+(b/x)^c)) to determine the 50% excitatory concentration (EC50) for the response. In this equation, y is the maximum fluorescence signal, x is the concentration of the agonist or antagonist (in this case, capsaicin), a is the Emax, b corresponds to the EC50 value and c is the Hill coefficient. Determination of Agonist Activity
Test compounds are dissolved in DMSO, diluted in 20 μl KRH buffer so that the final concentration of test compounds in the assay well is between 1 μM and 5 μM, and added to cells prepared as described above. The 96 well plates containing prepared cells and test compounds are incubated in the dark, at room temperature for 0.5 to 6 hours. It is important that the incubation not continue beyond 6 hours. Just prior to determining the fluorescence response, 100 μl capsaicin in KRH buffer at twice the EC50 concentration determined as described above is automatically added by the FLIPR instrument to each well of the 96 well plate for a final sample volume of 200 μl and a final capsaicin concentration equal to the EC50. The final concentration of test compounds in the assay wells is between 1 μM and […]. […] The concentration of antagonist required to provide a 50% decrease, relative to the response observed in the presence of capsaicin and without antagonist, is the IC50 for the antagonist, and is preferably below 1 micromolar, 100 nanomolar, 10 nanomolar or 1 nanomolar.

T1 sequence (Q8NER1 whole entry): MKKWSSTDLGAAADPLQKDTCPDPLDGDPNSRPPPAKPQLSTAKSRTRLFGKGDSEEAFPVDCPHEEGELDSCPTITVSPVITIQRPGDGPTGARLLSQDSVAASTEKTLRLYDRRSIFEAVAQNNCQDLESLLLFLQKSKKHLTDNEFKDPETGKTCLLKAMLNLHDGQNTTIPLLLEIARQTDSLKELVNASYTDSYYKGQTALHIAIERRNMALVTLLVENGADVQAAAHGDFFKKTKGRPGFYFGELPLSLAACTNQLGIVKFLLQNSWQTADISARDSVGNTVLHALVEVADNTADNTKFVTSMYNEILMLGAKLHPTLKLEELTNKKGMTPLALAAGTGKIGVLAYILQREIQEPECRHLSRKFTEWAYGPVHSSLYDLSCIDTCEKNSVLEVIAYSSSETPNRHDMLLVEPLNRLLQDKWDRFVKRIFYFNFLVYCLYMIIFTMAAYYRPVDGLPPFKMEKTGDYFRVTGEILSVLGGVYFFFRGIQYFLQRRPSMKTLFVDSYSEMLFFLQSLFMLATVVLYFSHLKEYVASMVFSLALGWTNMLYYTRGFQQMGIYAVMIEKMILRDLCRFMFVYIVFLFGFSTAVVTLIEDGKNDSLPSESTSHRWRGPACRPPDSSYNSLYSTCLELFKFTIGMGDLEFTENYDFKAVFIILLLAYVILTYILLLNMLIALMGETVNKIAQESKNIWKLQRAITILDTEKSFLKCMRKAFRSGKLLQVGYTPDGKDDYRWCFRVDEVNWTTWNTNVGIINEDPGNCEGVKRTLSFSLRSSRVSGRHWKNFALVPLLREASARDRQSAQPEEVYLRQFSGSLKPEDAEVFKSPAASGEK

Row | SMILES | IC50 [nM]
1 | FC(F)(F)c1cccnc1N1CCN(c2nc(Nc3ccccc3)cc(N3CCCCC3)n2)CC1 [Compound 57, Phenyl-{6-piperidin-1-yl-2-[4-(3-trifluoromethyl-pyridin-2-yl)-piperazin-1-yl]-pyrimidin-4-yl}-amine] | ≤ 1000
2 | C=CCN(CC=C)c1nc(Nc2ccc(C(F)(F)F)cc2)nc(N2CCN(c3ncccc3Cl)C[C@H]2C)n1 [Compound 32, N,N-Diallyl-6-[4-(3-chloro-pyridin-2-yl)-2-methyl-piperazin-1-yl]-N′-(4-trifluoromethyl-phenyl)-[1,3,5]triazine-2,4-diamine (R)] | ≤ 1000
3 | CN(C)c1nc(Nc2ccc(C(F)(F)F)cc2)nc(N2CCN(c3ccccc3)CC2)n1 [Compound 42, N,N-Dimethyl-6-(4-phenyl-piperazin-1-yl)-N′-(4-trifluoromethyl-phenyl)-[1,3,5]triazine-2,4-diamine] | ≤ 1000
4 | FC(F)(F)c1ccc(Nc2nc(N3CCOCC3)nc(N3CCN(c4ncccc4C(F)(F)F)CC3)n2)cc1 [Compound 23, {4-Morpholin-4-yl-6-[4-(3-trifluoromethyl-pyridin-2-yl)-piperazin-1-yl]-[1,3,5]triazin-2-yl}-(4-trifluoromethyl-phenyl)-amine] | ≤ 1000
5 | CN(C)c1nc(Nc2ccccc2)nc(N2CCN(c3ncccc3C(F)(F)F)CC2)n1 [Compound 51, N,N-Dimethyl-N′-phenyl-6-[4-(3-trifluoromethyl-pyridin-2-yl)-piperazin-1-yl]-[1,3,5]triazine-2,4-diamine] | ≤ 1000
6 | CCCNc1nc(Nc2ccc(C(F)(F)F)cc2)nc(N2CCN(c3ncccc3Cl)C[C@H]2C)n1 [Compound 22, 6-[4-(3-Chloro-pyridin-2-yl)-2-methyl-piperazin-1-yl]-N-propyl-N′-(4-trifluoromethyl-phenyl)-[1,3,5]triazine-2,4-diamine (R)] | ≤ 1000
7 | Fc1cccc(Nc2nc(N3CCCCC3)nc(N3CCN(c4ncccc4Cl)CC3)n2)c1 [Compound 70, {4-[4-(3-Chloro-pyridin-2-yl)-piperazin-1-yl]-6-piperidin-1-yl-[1,3,5]triazin-2-yl}-(3-fluoro-phenyl)-amine] | ≤ 1000
8 | FC(F)(F)c1cccnc1N1CCN(c2nc(Nc3ccc(Cl)cc3)nc(N3CCOCC3)n2)CC1 [Compound 63, (4-Chloro-phenyl)-{4-morpholin-4-yl-6-[4-(3-trifluoromethyl-pyridin-2-yl)-piperazin-1-yl]-[1,3,5]triazin-2-yl}-amine] | ≤ 1000
9 | CCN(CC)c1nc(Nc2ccc(F)c(F)c2)nc(N2CCN(c3ncccc3Cl)C[C@H]2C)n1 [Compound 100, 6-[4-(3-Chloro-pyridin-2-yl)-2-methyl-piperazin-1-yl]-N-(3,4-difluoro-phenyl)-N′,N′-diethyl-[1,3,5]triazine-2,4-diamine (R)] | ≤ 1000
10 | CCN(c1nc(Nc2ccc(C(F)(F)F)cc2)nc(N2CCN(c3ncccc3Cl)CC2)n1)C(C)C [Compound 50, 6-[4-(3-Chloro-pyridin-2-yl)-piperazin-1-yl]-N-ethyl-N-isopropyl-N′-(4-trifluoromethyl-phenyl)-[1,3,5]triazine-2,4-diamine] | ≤ 1000

More lines, now with the values ahead:

Row | IC50 [nM] | SMILES
11 | ≤ 1000 | CCN(CC)c1nc(Nc2ccc(F)c(F)c2)nc(N2CCN(c3ncccc3S(C)(=O)=O)C[C@H]2C)n1 [Compound 102, N-(3,4-Difluoro-phenyl)-N′,N′-diethyl-6-[4-(3-methanesulfonyl-pyridin-2-yl)-2-methyl-piperazin-1-yl]-[1,3,5]triazine-2,4-diamine (R)]
12 | ≤ 1000 | COc1ccc(-c2nc(Nc3ccc(C(F)(F)F)cc3)nc(N3CCN(c4ncccc4Cl)C[C@H]3C)n2)c(OC)c1 [Compound 116, [4-[4-(3-Chloro-pyridin-2-yl)-2-methyl-piperazin-1-yl]-6-(2,4-dimethoxy-phenyl)-[1,3,5]triazin-2-yl]-(4-trifluoromethyl-phenyl)-amine]
13 | ≤ 1000 | C[C@@H]1CN(c2ncccc2C(F)(F)F)CCN1c1nc(Nc2ccc(C(F)(F)F)cc2)nc(OCc2ccccc2C(F)(F)F)n1 [Compound 9]
14 | ≤ 1000 | Cc1ccccc1Nc1nc(N2CCOCC2)cc(N2CCN(c3ncccc3C(F)(F)F)CC2)n1 [Compound 85, {4-Morpholin-4-yl-6-[4-(3-trifluoromethyl-pyridin-2-yl)-piperazin-1-yl]pyrimidin-2-yl}-o-tolyl-amine]
15 | ≤ 1000 | C[C@@H]1CN(c2ncccc2F)CCN1c1nc(Nc2ccc(C(F)(F)F)cc2)nc(OCc2ccccc2C(F)(F)F)n1 [Compound 10, [4-[4-(3-Fluoro-pyridin-2-yl)-2-methyl-piperazin-1-yl]-6-(2-trifluoromethyl-benzyloxy)-[1,3,5]triazin-2-yl]-(4-trifluoromethyl-phenyl)-amine (R)]
16 | ≤ 1000 | CCN(CC)Cc1nc(Nc2ccc(F)c(F)c2)cc(N2CCN(c3ncccc3C(F)(F)F)CC2)n1 [Compound 111, {2-Diethylaminomethyl-6-[4-(3-trifluoromethyl-pyridin-2-yl)-piperazin-1-yl]-pyrimidin-4-yl}-(3,4-difluoro-phenyl)-amine]
17 | ≤ 1000 | Fc1ccc(Nc2nc(N3CCOCC3)nc(N3CCN(c4ncccc4C(F)(F)F)CC3)n2)cc1F [Compound 69, (3,4-Difluoro-phenyl)-{4-morpholin-4-yl-6-[4-(3-trifluoromethyl-pyridin-2-yl)-piperazin-1-yl]-[1,3,5]triazin-2-yl}-amine]
18 | ≤ 1000 | CN(C)c1nc(Nc2ccc(C(F)(F)F)cc2)nc(N2CCN(c3ncccc3Cl)CC2)n1 [Compound 44, 6-[4-(3-Chloro-pyridin-2-yl)-piperazin-1-yl]-N,N-dimethyl-N′-(4-trifluoromethyl-phenyl)-[1,3,5]triazine-2,4-diamine]
19 | ≤ 1000 | Cc1ccc(Nc2nc(N3CCOCC3)nc(N3CCN(c4ncccc4Cl)CC3)n2)cc1 [Compound 65, {4-[4-(3-Chloro-pyridin-2-yl)-piperazin-1-yl]-6-morpholin-4-yl-[1,3,5]triazin-2-yl}-p-tolyl-amine]
20 | ≤ 1000 | CCCNc1nc(Nc2cccc(F)c2)nc(N2CCN(c3ncccc3Cl)CC2)n1 [Compound 81, 6-[4-(3-Chloro-pyridin-2-yl)-piperazin-1-yl]-N-(3-fluoro-phenyl)-N′-propyl-[1,3,5]triazine-2,4-diamine]
21 | ≤ 1000 | CCC(C)Nc1nc(Nc2ccc(C(F)(C(F)(F)F)C(F)(F)F)cc2)nc(N2CCN(c3ncccc3Cl)C[C@H]2C)n1 (stereo partly drawn) [Compound 27, N-sec-Butyl-6-[4-(3-chloro-pyridin-2-yl)-2-methyl-piperazin-1-yl]-N′-[4-(1,2,2,2-tetrafluoro-1-trifluoromethyl-ethyl)-phenyl]-[1,3,5]triazine-2,4-diamine (R)]
22 | ≤ 1000 | Fc1cccc(Nc2nc(N3CCCCCC3)nc(N3CCN(c4ncccc4Cl)CC3)n2)c1 [Compound 78, {4-Azepan-1-yl-6-[4-(3-chloro-pyridin-2-yl)-piperazin-1-yl]-[1,3,5]triazin-2-yl}-(3-fluoro-phenyl)-amine]
23 | ≤ 1000 | Fc1ccc(Nc2cc(N3CCN(c4ncccc4C(F)(F)F)CC3)nc(CN3CCOCC3)n2)cc1F [Compound 112, (3,4-Difluoro-phenyl)-{2-morpholin-4-ylmethyl-6-[4-(3-trifluoromethyl-pyridin-2-yl)-piperazin-1-yl]-pyrimidin-4-yl}-amine]
24 | ≤ 1000 | Clc1cccc(Nc2nc(N3CCOCC3)nc(N3CCN(c4ncccc4Cl)CC3)n2)c1 [Compound 66, (3-Chloro-phenyl)-{4-[4-(3-chloro-pyridin-2-yl)-piperazin-1-yl]-6-morpholin-4-yl-[1,3,5]triazin-2-yl}-amine]
